Common to all, as to type: in vivo
For experiment [1], the system named is Neotropical Brown Stink Bug (Euschistus heros, EUSCHE). The experiment in a line: whole plant or invertebrate. Conditions: Euschistus heros, 72 h, read-out: Average % Control AI. The method, then:
X=No. of live nymphs on solvent check and Y=No. of live nymphs on treated bean segments. In Table B4 the “Expected % Control” was calculated using the method described in Colby S. R., Weeds, 1967, 15, 20-22. Bioassay 5: Neotropical Brown Stink Bug (Euschistus heros, EUSCHE) (“BSB”).
Stock solutions were prepared with Formula One as well as for each of the active ingredients individually. Test solutions were prepared from the stock solutions. Test solutions were prepared containing Formula One, the individual active ingredients, and mixtures of Formula One with each of the active ingredients. The test solution for Formula One was prepared by adding 500 μL of the stock solution to a 25 mL glass vial, then adding 500 μL of acetone, followed by the addition of 9 mL water with 0.025% Tween®) 20 to create a 0.04% (w/v) solution. The individual active ingredients were prepared by adding 500 μL of stock solution to a 25 mL glass vial, then adding 500 μL of acetone, followed by the addition of 9 mL water with 0.025% Tween®) 20 to create a 0.005% (w/v) solution. The test solutions containing mixtures of Formula One and the individual active ingredients were prepared by adding 500 μL of the active ingredient stock solution to a 25 mL glass vial, followed by 500 μL of the Formula One stock solution, then by the addition of 9 mL water with 0.025% Tween®) 20 to create a test solution containing 0.04% (w/v) Formula One and 0.005% (w/v) of the active ingredient. Each test solution was serially diluted to create desired doses of test solutions (0.01% (w/v), 0.0025% (w/v), 0.000625% (w/v), 0.000156% (w/v), and 0.000039% (w/v)). In test solutions containing mixtures of Formula One and the active ingredients, the active ingredients were diluted as described above, but the Concentration of Formula One was held constant (0.04% (w/v)).
The test solutions that were tested against BSB were similar to those described above for WTPB. Fresh green beans were cut into segments approximately 1.5 inches long. Four bean segments were added to each test solution and soaked for approximately 15 minutes. After soaking, a single bean fragment was removed and placed into a single well of a 32-well rearing tray (Frontier Agricultural Sciences™), on top of a round filter paper disc. A reference treatment (solvent check) was treated with the diluent only. Each treatment was replicated four times and the test treatments were held at approximately 26° C. and ambient relative humidity (RH) prior to grading. Bean segments were allowed to air dry for ˜30 minutes. Three BSB nymphs were added to and contained in each well with a clear perforated adhesive lid. The total number of living BSB nymphs was recorded 3 days after application. Scoring was based off the total number of living nymphs out of all four replicates. Percent control was measured using Abbott's correction formula (W. S. Abbott, J. Econ. Entomol. 18 (1925), pp. 265-267) as follows:
where X=No. of live nymphs on solvent check and Y=No. of live nymphs on treated bean segments. In Table B5 the “Expected % Control” was calculated using the method described in Colby S. R., Weeds, 1967, 15, 20-22. Bioassay 6: Beet Armyworm (Spodoptera exigua, LAPHEG) (BAW), and Diamondback Moth (Plutella xylostella, PLUTMA) (DBM).

Experiment [2] deals with Western Flower Thrips (Frankliniella occidentalis, FRANOC). The experiment can be described thus: Bioassay 3: Western Flower Thrips, cotton leaf disc dip, live WFT counted 3 days after treatment. The conditions noted are these: Frankliniella occidentalis, foliar, 72 h; for pest or weed control at 0.005 % strength: AI alone 0.005 % w/v. The method, then:
Stock solutions of Formula One and various active ingredients were prepared initially at a concentration of 8 mg/ml for Formula One and 1 mg/mL for the active ingredients, respectively, using acetone as a diluent. Stock solutions were prepared with Formula One as well as for each of the active ingredients individually. Test solutions were prepared from the stock solutions. Test solutions were prepared containing Formula One, the individual active ingredients, and mixtures of Formula One with each of the active ingredients. The test solution for Formula One was prepared by adding 500 μL of the stock solution to a 25 mL glass vial, then adding 500 μL of acetone, followed by the addition of 9 mL water with 0.025% Tween®) 20 to create a 0.04% (w/v) solution. The test solutions of the individual active ingredients were prepared by adding 500 μL of stock solution to a 25 mL glass vial, then adding 500 μL of acetone, followed by the addition of 9 mL water with 0.025% Tween®) 20 to create a 0.005% (w/v) solution. The test solutions containing mixtures of Formula One and the individual active ingredients were prepared by adding 500 μL of the active ingredient stock solution to a 25 mL glass vial, followed by 500 μL of the Formula One stock solution, then by the addition of 9 mL water with 0.025% Tween®) 20 to create a test solution containing 0.04% (w/v) Formula One and 0.005% (w/v) of the active ingredient. Each test solution was serially diluted to create desired doses of test solutions (0.005% (w/v), 0.00125% (w/v), 0.0003125% (w/v), 0.000078% (w/v), and 0.0000195% (w/v)). In test solutions containing mixtures of Formula One and the active ingredients, the active ingredients were diluted as described above, but the Concentration of Formula One was held constant (0.04% (w/v)).
The test solutions were tested against WFT using the following procedure: Leaf discs (2.7 cm in diameter) were cut from the true leaves of cotton plants. Leaf discs were dipped into the test solutions and shaken to ensure complete coverage of the leaf disc and then placed in Millipore®) PetriSlides containing a filter paper disc. Treated leaf discs were air dried for approximately 1 hour. Each leaf disc was infested with 5 WFT (9-10-day old nymphs) by placement on each leaf disc, and the PetriSlides were capped to prevent escape. Each treatment was replicated three times and the test treatments were held at approximately 26° C. and ambient relative humidity (RH) prior to grading. Reference discs (solvent check) were treated with the diluent only. Evaluation was conducted by counting the number of live WFT under magnification 3 days after treatment. Percent control was measured using Abbott's correction formula (W. S. Abbott, J. Econ. Entomol. 18 (1925), pp. 265-267) as follows:
where X=No. of live nymphs on solvent check leaf discs and Y=No. of live nymphs on treated leaf discs. In Table B3 the “Expected % Control” was calculated using the method described in Colby S. R., Weeds, 1967, 15, 20-22. Bioassay 4: Western Tarnished Plant Bug (Lygus hesperus, LYGUHE) (“WTPB”).

Experiment [3] concerns Sweet Potato Whitefly (Bemisia tabaci, BEMITA). The experiment in a line: Bioassay 2: Sweet Potato Whitefly, spray on cotton seedlings at crawler emergence, nymphs counted 7-9 days after treatment. The conditions noted are these: AI alone 0.1 (10-5) % w/v. The method, then:
Stock solutions were prepared with Formula One as well as for each of the active ingredients individually. Test solutions were prepared from the stock solutions. Test solutions were prepared containing Formula One, the individual active ingredients, and mixtures of Formula One with each of the active ingredients. The test solutions for Formula One and the individual active ingredients were prepared by adding 500 μL of stock solution to a 25 mL glass vial, then adding 500 μL of acetone, followed by the addition of 9 mL water with 0.025% Tween®) 20 to create a 0.001% (w/v) solution. The test solutions containing mixtures of Formula One and the individual active ingredients were prepared by adding 500 μL of the active ingredient stock solution to a 25 mL glass vial, followed by 500 μL of the Formula One stock solution, then by the addition of 9 mL water with 0.025% Tween®) 20 to create a test solution containing 0.001% (w/v) Formula One and 0.001% (w/v) of the active ingredient. Each test solution was serially diluted to create desired doses of test solutions (0.001% (w/v), 0.0001% (w/v), 0.00001% (w/v), 0.000001% (w/v), 0.0000001% (w/v), and 0.00000001% (w/v)).
The test solutions were tested against SPW using the following procedure: Cotton seedlings grown in 3-inch pots, pruned so that only one true leaf remained, were used as test substrate. Adult B. tabaci were allowed to colonize the cotton plants and lay eggs for 24 hours after which all adults were removed from the plants using compressed air. Plants were monitored for egg development and, when crawler emergence was underway (>25% emergence based on visual examination using a microscope), the plants were sprayed using the test solutions and methods described above for green peach aphids (GPA). Treated plants were held in a holding room at approximately 25° C. and ambient relative humidity (RH) prior to grading. Evaluation was conducted by counting the number of developed 2-3 instar nymphs per plant under a microscope 7-9 days after treatment. Percent control was measured using Abbott's correction formula (W. S. Abbott, J. Econ. Entomol. 18 (1925), pp. 265-267) as follows:
where X=No. of live nymphs on solvent check plants and Y=No. of live nymphs on treated plants. In Table B2 the “Expected % Control” was calculated using the method described in Colby S. R., Weeds, 1967, 15, 20-22. Bioassay 3: Western Flower Thrips (Frankliniella occidentalis, FRANOC) (“WFT”).

Experiment [4] relates to Green Peach Aphid (Myzus persicae, MYZUPE). The experiment can be described thus: Bioassay 1: Green Peach Aphid, foliar spray on infested cabbage seedlings, live aphids counted three days after treatment. As to the method:
Bioassay 1: Green Peach Aphid (Myzus persicae, MYZUPE) (“GPA”).
The stock solutions were prepared with Formula One as well as for each of the active ingredients individually. Test solutions were prepared from the stock solutions. Test solutions were prepared containing Formula One, the individual active ingredients, and mixtures of Formula One with each of the active ingredients. The test solutions for Formula One and the individual active ingredients were prepared by adding 750 microliters (μL) of stock solution to a 25 mL glass vial, then adding 750 μL of 1:1 acetone: methanol solvent, followed by the addition of 13.5 ml water with 0.025% Tween®) 20 to create a 0.0005% (weight/volume (w/v)) solution. The test solutions containing mixtures of Formula One and the individual active ingredients were prepared by adding 750 μL of the active ingredient stock solution to a 25 mL glass vial, followed by 750 μL of the Formula One stock solution, then by the addition of 13.5 mL water with 0.025% Tween®) 20 to create a test solution containing 0.0005% (w/v) Formula One and 0.0005% (w/v) of the active ingredient. Each test solution was serially diluted to create desired doses of test solutions (0.0005% (w/v), 0.000125% (w/v), 0.00003125% (w/v), 0.0000078% (w/v), 0.00000195% (w/v), and 0.0000005% (w/v)).
The test solutions were tested against GPA using the following procedure: Cabbage seedlings, grown in 3-inch pots with 2-3 small (3-5 centimeter (cm)) true leaves, were used as test substrate. The seedlings were infested with 20-50 GPA (wingless adult and nymph stages) one day prior to chemical application. Four pots with individual seedlings were used for each treatment. A hand-held aspirator-type sprayer was used for spraying a solution to both sides of […] leaves until runoff. Reference plants (solvent check) were sprayed with the diluent only (0.025% Tween®) 20 and 10% acetone:methanol (1:1) in water). Treated plants were held in a holding room for three days at approximately 25° C. and ambient relative humidity (RH about 20% to about 45%) prior to grading. Evaluation was conducted by counting the number of live aphids per plant under a microscope three days after treatment. Percent control was measured using Abbott's correction formula (W. S. Abbott, J. Econ. Entomol. 18 (1925), pp. 265-267) as follows:
where X=No. of live aphids on solvent check plants and Y=No. of live aphids on treated plants. In Table B1 the “Expected % Control” was calculated using the method described in Colby S. R., Weeds, 1967, 15, 20-22. Bioassay 2: Sweet Potato Whitefly (Bemisia tabaci, BEMITA) (“SPW”).

Consider `CCOCn1c(-c2ccc(Cl)cc2)c(C#N)c(Br)c1C(F)(F)F` [Chlorfenapyr], for which, in experiment [1] (AI alone 0.0025 % w/v), the pest or weed control at 0.0025 % strength was 8%. The molecule also had a pest or weed control at 0.005 % strength in experiment [2] of 57%.

With `CNC(=O)c1cc(C#N)cc(C)c1NC(=O)c1cc(Br)nn1-c1ncccc1Cl` [Cyantraniliprole], in experiment [3], the “Average % Control AI” value stood at 0%.

For `COc1cccc(C(=O)NN(C(=O)c2cc(C)cc(C)c2)C(C)(C)C)c1C` [Methoxyfenozide], the “Average % Control AI” value in experiment [4] (AI alone 0.195 (10^-5) % w/v) came out at 5%.

For the molecule `CNC(=O)c1cc(Cl)cc(C)c1NC(=O)c1cc(Br)nn1-c1ncccc1Cl` [Chlorantraniliprole], the pest or weed control at 0.005 % strength in experiment [2] was found to be 7%.

For `CCOC(=O)OC1=C(c2cc(C)ccc2C)C(=O)N[C@]12CC[C@@H](OC)CC2` [Spirotetramat], the “Average % Control AI” value in experiment [4] (AI alone 0.05 (10^-5) % w/v) is 15%. Besides, the pest or weed control at 7.8e-05 % strength in experiment [2] (AI alone 0.000078 % w/v, read-out: Average % Control AI) turned out to be 7%.

For the molecule `CC(COc1ccc(Oc2ccccc2)cc1)Oc1ccccn1` (stereo not shown) [Pyriproxyfen], the “Average % Control AI” value in experiment [3] stood at 8%. The molecule further registered a pest or weed control at 0.00125 % strength in experiment [2] (AI alone 0.00125 % w/v) of 17%.

Regarding `CN/C(=N/CC1CCOC1)N[N+](=O)[O-]` (stereo not shown) [Dinotefuran], the pest or weed control at 0.000156 % strength in experiment [1] was 17%.
